How the values were obtained:
[1] = tested on: strain DH10B with plasmid pTrc99A-gfp; test: Extracellular induction of hydrogel-encapsulated cells with pTrc99A-gfp (GFP expression) by the HPT method; format: cell-based, Escherichia coli; details: 1 mM IPTG in agarose substrate; average of 10 hydrogel microparticles; GFP produced until 8 hours
Description: Competent cells of the MG1655 and DH10B were transformed with synthetically engineered genetic circuits. Some plasmids were transferred from the Registry of Standard Biological Parts, and the others were constructed in the experiment with different antibiotic resistance marker genes. For the growth of these strains, each Escherichia coli culture was grown overnight on M 9 agar solid medium plates with appropriate antibiotics at 35° C. A single colony was used to inoculate 5 mL M9 media with 1% glucose, 1% tryptone, and either 100 μg/mL ampicillin or 30 μg/mL chloramphenicol. Thereafter, the cultures were then grown overnight (16 hours) with vigorous aeration (200 rpm in a rotary shaker), and OD600=1.5-2 cells (1-2 mL) were centrifuged at 5000 rpm for 5 min. The obtained pellet was resuspended with fresh M9 media to give bacterial suspensions with desired cell densities. […]
The images of cell patterns were taken using a stereomicroscope (SZX16, Olympus, Japan) equipped with a CCD camera (DP72, Olympus, Japan) and a fluorescent light source (Xcite-200, ExFo Photonics solutions Inc., Mississauga, Canada) operated by the DP2-BSW software (Olympus, Japan). […] All image processing and quantification of fluorescent intensities were performed using Image J. (NIH, USA), and then results were plotted using Origin 7.1 (OriginLab, Northampton, Mass., USA). […]

[2] = tested on: araBAD promoter (PBAD) of pZBRG; test: Induction of RFP from the genetic circuit pZBRG (araBAD promoter) in hydrogel-encapsulated cells; format: cell-based, Escherichia coli

Compound | gene expression level (average GFP fluorescent intensity) [1] | RFP expression of patterned cells ([2]; 400 mM arabinose in agarose substrate, in 8 hours) | threshold concentration (inducer gradient) ([2]; RFP gradient reaches saturated values in about 10 hours) | cross-talk on simultaneous induction (RFP) ([2]; both tetracycline (1 μM) and arabinose (400 μM)) | fluorescent signals detected, separate induction ([2]; only arabinose (400 μM) in agarose substrate)
CC(C)S[C@@H]1O[C@H](CO)[C@H](O)[C@H](O)[C@H]1O [IPTG, isopropyl-beta-D-thiogalactopyranoside] | 40 AU | – | – | – | –
O=C[C@@H](O)[C@H](O)[C@H](O)CO [arabinose] | – | activated to express red fluorescent protein (RFP) | relatively high | no significant cross-talk was observed | only RFP signals were detected

Source: patent publication US9869616B2, “Hydrogel encapsulated cell patterning and transferring method and cell-based biosensor using the same” (UNIST ACADEMY-INDUSTRY RESEARCH CORPORATION, priority 2011, dated 2018)
